Laboratory results reported in the supplement of paper PMC11997997.

Key:
[1] = test system: murine bone marrow-derived macrophages; assay: area under cytotoxicity dose-response curve (AUC (% cytotoxicity x dose, relative)); higher = more cytotoxic; conditions: duration: 6 days; dose range: 0.13-80 uM, 8 points
Summary of the method: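 Using opaque 384-well plates, primary murine bone marrow-derived macrophages were treated for 6 days at 37 °C in 5% CO2 with an 8-point, 2.5-fold dilution series spanning final concentrations of 80–0.13 μM. After CellTiter-Glo (Promega) luminescence readout of viability, percent cytotoxicity was normalised to vehicle and positive control wells. The reported value is the area under the dose–response curve for cytotoxicity, derived in GraphPad Prism version 10.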

[2] = test system: Mycobacterium tuberculosis CDC1551 (intracellular, in murine BMDM); assay: area under intracellular growth-inhibition dose-response curve (AUC (% inhibition x dose, relative)); higher = more potent; conditions: duration: 6 days; dose range: 0.13-80 uM, 8 points
Summary of the method: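 Primary murine bone marrow-derived macrophages in 384-well opaque plates were infected 24 h after seeding with luciferase-expressing M. tuberculosis CDC1551 at multiplicity of infection 1 for 1 h. They were then treated with an 8-dose, 2.5-fold series (final 80–0.13 μM) for 6 days. Growth was read by Bright-Glo luciferin assay and normalised to a reference drug control and the lowest-concentration wells. The value is the area under the growth-inhibition dose–response curve, calculated in GraphPad Prism.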

| Compound | area under cytotoxicity dose-response curve [1] | area under intracellular growth-inhibition dose-response curve [2] |
| --- | --- | --- |
| O=C(Cn1nnc(-c2ccc(F)cc2)n1)Nc1cccc(S(=O)(=O)N2CCCC2)c1 | 11.8 | 73.7 |
| CC(C)(C)C1C/C(=C/c2ccccn2)C(=O)/C(=C/c2ccccn2)C1 (stereo not given) | 155 | 65.4 |
| O=C(NN=Cc1ccc2c(c1)OCO2)c1ccncc1 | 65.5 | 238 |
| C=CCNC(=S)NNC(=O)CC12CC3CC(CC(C3)C1)C2 | 8.72 | 222 |
| O=C(NCC1CCCO1)c1csc2c1CCCCC2 (stereo not given) | 19.4 | 143 |
| Cc1cc(C(=O)NCc2cccs2)cs1 | 9.86 | 25.9 |
| COc1cc(OC)c(/C=N/NC(=O)c2ccncc2)cc1Br | 98 | 249 |
| CCCCC(=O)NCc1ccc(F)cc1 | < 0 | 199 |
| O=C(N/N=C\c1ccc([N+](=O)[O-])o1)C1COc2ccccc2O1 (stereo not given) | 10.7 | 203 |
| CCCCCCn1c(=O)c(C(=O)Nc2ncccc2C)c(O)c2ccccc21 | 47.2 | 237 |
| Cl.N=C(NCCCCCCNC(=N)NC(=N)Nc1ccc(Cl)cc1)NC(=N)Nc1ccc(Cl)cc1 | 120 | 43 |
| CC(=O)NC(=S)Nc1ccc(NC(=O)COc2ccc(Cl)cc2Cl)cc1 | 38.6 | 220 |
| CC(C)c1ccc(CNc2nc3nc4c(c(O)n3n2)CCC4)cc1 | < 0 | 163 |
| CCOc1ccc(/C=N/NC(N)=S)cc1 | 28.9 | 270 |
| CCCN=C1C(=O)C2=C(C(O)=C1C)N1CC3NC3[C@@]1(OC)C2COC(N)=O (stereo not given in full) | 121 | 166 |
| CC(NC(=O)c1cc([N+](=O)[O-])cc([N+](=O)[O-])c1)C1CC2CCC1C2 (stereo not given) | 64.9 | 257 |
| C/C(CC(=O)NCCN1CCOCC1)=N\NC(=O)c1ccncc1 | 12.5 | 206 |
| Cc1cc(Cl)ccc1OCCCC(=O)NNC(=O)c1ccncc1 | < 0 | 271 |
| CCN(C(=O)COC(=O)c1nc(Cl)ccc1Cl)c1c(N)n(Cc2ccccc2)c(=O)[nH]c1=O | 73 | 28.6 |
| COc1ccc(/C=C(\NC(=O)c2ccc(C)cc2)C(=O)Nc2c(C)n(C)n(-c3ccccc3)c2=O)cc1 | 42 | 50.7 |

| Compound | area under cytotoxicity dose-response curve [1] | area under intracellular growth-inhibition dose-response curve [2] |
| --- | --- | --- |
| Cc1ccc(C)c(NC(=O)CN2C(=O)NC(C)(c3ccc4c(c3)OCCO4)C2=O)c1 (stereo not given) | 4.48 | 44.8 |
| Cc1cc(/C=N/NC(N)=S)c(C)n1-c1ccc(Cl)c(Cl)c1 | < 0 | 257 |
| O=C(C=Cc1ccccc1)N1CCCCC1 | 46.5 | 119 |
| CCCCCc1ccc(OCCCC[n+]2ccccc2)c(CCCCC)c1.[Cl-] | 79.3 | 16 |
| O=C(NC12CC3CC(CC(C3)C1)C2)c1ccc(Br)o1 | < 0 | 171 |
| COC(=O)C(C)NC(=S)N1CCN(c2c(F)cc3c(=O)c(C(=O)O)cn(C4CC4)c3c2OC)CC1C (stereo not given) | 23.4 | 90 |
| O=C(CCc1ccccc1)NC1C2CC3CC(C2)CC1C3 (stereo not given) | 3.6 | 194 |
| CCN1CCN(c2cc3c(cc2F)c(=O)c(C(=O)O)cn3C2CC2)CC1 | 7.13 | 258 |
| CC(=O)O[C@H]1C[C@@]2(C)[C@@H](C[C@@H](O)[C@H]3[C@@]4(C)CC[C@@H](O)[C@@H](C)[C@@H]4CC[C@@]32C)/C1=C(\CCC=C(C)C)C(=O)[O-].[Na+] | 74.7 | 182 |
| Cc1cc(O)c2c(n1)c(C)cc1[nH]c(C)c(C)c12 | < 0 | 137 |
| CCN(CC)CCN(C(=O)c1ccc2c(c1)OCCO2)c1nc2cc(C)cc(C)c2s1.Cl | 8.98 | 246 |
| Cc1cccc(-n2c(C)cc(/C=N/NC(N)=S)c2C)c1 | < 0 | 235 |
| CC1CCCC(C)N1C(=O)COC(=O)c1cccnc1Cl (stereo not given) | 9.13 | 33.7 |
| C/C(=N\NC(N)=S)c1ccc2c(c1)OCCO2 | 25.3 | 196 |
| CC(NC(=O)COC(=O)c1ccc(N2CCCC2=O)cc1)c1ccc(F)cc1 (stereo not given) | < 0 | 37.5 |
| CCOc1ccccc1OCCCC(=O)Nc1cccc(S(=O)(=O)N2CCOCC2)c1 | 99 | 74 |
| O=C(NCC1CC1(Cl)Cl)Nc1ccc(Cl)c(Cl)c1 (stereo not given) | 111 | 239 |
| COc1cccc(OCC(=O)NC2CCCCCC2)c1 | 22.4 | 266 |
| CC(NC(=S)Nc1ccc(OC(F)F)c(Cl)c1)C(C)(C)C (stereo not given) | 12.4 | 198 |
| CC1CCN(C(=O)C2COc3ccccc3O2)CC1 (stereo not given) | < 0 | 265 |

| Compound | area under cytotoxicity dose-response curve [1] | area under intracellular growth-inhibition dose-response curve [2] |
| --- | --- | --- |
| O=C(/C=C/c1ccc2c(c1)OCO2)N1CCCCC1 | 15.2 | 155 |
| O=C(c1ccc([N+](=O)[O-])o1)N1CCN(c2nc3c(F)cc(F)cc3s2)CC1 | 161 | 20.8 |
| NS(=O)(=O)c1ccc(NC(=O)c2ccc(Cl)c(S(=O)(=O)NCc3ccco3)c2)cc1 | < 0 | 25.5 |
| O=C(NCC1CCCCC1)c1ccc(Cl)nc1 | 2.72 | 258 |
| O=C(/C=C/c1cccs1)N1CCCCC1 | < 0 | 243 |
| Cc1ccc(C(=O)N2CCN(c3ccc(NC(=S)NC(=O)c4cccs4)cc3)CC2)cc1 | < 0 | 275 |
| COc1ccccc1/C=C1\SC(=S)N(CCC(=O)Nc2ccc(C(=O)O)c(O)c2)C1=O | < 0 | 124 |
| CCCC12CN3CCN(CC(C3)/C1=N\NC(=O)c1ccncc1)C2 | 28.1 | 233 |
| CO[C@H]1C=CO[C@@]2(C)Oc3c(C)c(O)c4c(O)c(c(C=NN5CCN(C)CC5)c(O)c4c3C2=O)NC(=O)C(C)=CC=C[C@H](C)[C@H](O)[C@@H](C)[C@@H](O)[C@@H](C)[C@H](OC(C)=O)[C@@H]1C | 92.8 | 275 |
| O=C(COc1ccc(Cl)cc1)NNC(=O)c1ccncc1 | 9.09 | 274 |
| CCNC(=S)Nc1ccc(OCc2nc3ccccc3s2)cc1 | 35.3 | 273 |
| CCn1c(C)cs/c1=N/C(=O)c1ccccc1 | 25.7 | 197 |
| O=C(Nc1ccn(Cc2ccccc2)n1)c1ccc2c(c1)OCO2 | 62.2 | 121 |
| Cc1cc2oc(=O)cc(-c3ccccc3)c2c(C)c1-c1ccc(C#N)cc1 | 110 | 272 |
| O=C(NCc1ccccc1)C1COc2ccccc2O1 (stereo not given) | 14.8 | 193 |
| Cc1ccc(C(=O)NCc2ccc(Cl)cc2)o1 | 15.1 | 263 |
| CC[C@H]1OC(=O)[C@H](C)[C@@H](O[C@H]2C[C@@](C)(OC)[C@@H](O)[C@H](C)O2)[C@H](C)[C@@H](O[C@@H]2O[C@H](C)C[C@H](N(C)C)[C@H]2O)[C@](C)(OC)C[C@@H](C)C(=O)[C@H](C)[C@@H](O)[C@]1(C)O | 48.5 | 246 |
| CC(C)(C)c1ccc(OCCNC(=O)c2nc[nH]n2)cc1 | < 0 | 233 |
| COc1sc(SC)cc1/C=N/NC(=O)c1ccncc1 | 26.8 | 176 |
| O=C(/C=C\c1cccs1)N1CCN(Cc2ccc3c(c2)OCO3)CC1 | 135 | 218 |
